Results reported in article PMC12064818, “A general assay platform to study protein pharmacology using ligand-dependent structural dynamics” (Nature Communications, 2025).
Where two headings read alike, the source gives them in different places.

Assays:
[1] = target: FLuc-C-HiBiT (firefly luciferase) (Photinus pyralis, UniProt P08659, form not given/L550V); assay: SDR assay, FLuc-C-HiBiT; conditions: SDR max. response, clade S
[2] = target: P. pyralis FLuc (Photinus pyralis, UniProt P08659); assay: FLuc enzymatic luminescence assay, P. pyralis FLuc; type: biochemical; conditions: FLuc enzymatic assay; for IC50: read-out: IC50 or SDR50 (mM) FLuc E
Procedure, shortened: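 Runs with and without 10 µM ATP: compounds were pre-incubated with FLuc (1–10 nM, PBS pH 7.4) at ambient temperature, light-protected, for 30–60 min. Luminescence was imaged 5 min after adding 10 µM D-luciferin (final). Inhibition was scaled between DMSO neutral and no-enzyme controls.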

[3] = target: T1, NLuc (Oplophorus gracilirostris, UniProt Q9GV45, A31E/A60N/A81I/F95D/I117V/K70R/L54V/L99Q/M102K/N193R/P142E/Q151K/Q38R/Q45L/V71I/Y165I); type: biochemical; conditions: - ATP
T1 construct: His tag (inferred from IMAC purification); made in house; host or cells: E. coli
Procedure, shortened: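 Luminescence was read 10 min after Nano-Glo reagent addition. Enzyme was 1 nM NLuc in PBS/0.05% IGEPAL buffer, with or without ATP.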

[4] = target: FLuc-C-NLuc (firefly luciferase) (Photinus pyralis, UniProt P08659, form not given/L550V); assay: SDR assay, FLuc-C-NLuc; conditions: - ATP
Sequence of FLuc-C-NLuc (firefly luciferase) (P08659 2-550 L550V, form open): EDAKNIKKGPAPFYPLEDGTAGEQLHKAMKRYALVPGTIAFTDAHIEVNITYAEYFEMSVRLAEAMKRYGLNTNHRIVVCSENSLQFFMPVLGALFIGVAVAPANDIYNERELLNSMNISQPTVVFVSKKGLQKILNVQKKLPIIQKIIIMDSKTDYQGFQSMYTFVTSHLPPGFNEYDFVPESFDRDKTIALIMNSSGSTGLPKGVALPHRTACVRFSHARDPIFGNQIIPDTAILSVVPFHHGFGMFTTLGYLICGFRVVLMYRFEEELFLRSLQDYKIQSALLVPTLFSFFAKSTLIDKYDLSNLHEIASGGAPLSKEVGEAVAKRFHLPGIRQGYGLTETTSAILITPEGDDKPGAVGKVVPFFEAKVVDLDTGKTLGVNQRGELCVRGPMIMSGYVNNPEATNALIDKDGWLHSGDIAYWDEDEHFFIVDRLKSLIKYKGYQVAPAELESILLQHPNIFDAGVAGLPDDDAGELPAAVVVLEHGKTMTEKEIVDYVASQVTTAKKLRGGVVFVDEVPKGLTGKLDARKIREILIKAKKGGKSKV

Sequence of P. pyralis FLuc (P08659 whole entry): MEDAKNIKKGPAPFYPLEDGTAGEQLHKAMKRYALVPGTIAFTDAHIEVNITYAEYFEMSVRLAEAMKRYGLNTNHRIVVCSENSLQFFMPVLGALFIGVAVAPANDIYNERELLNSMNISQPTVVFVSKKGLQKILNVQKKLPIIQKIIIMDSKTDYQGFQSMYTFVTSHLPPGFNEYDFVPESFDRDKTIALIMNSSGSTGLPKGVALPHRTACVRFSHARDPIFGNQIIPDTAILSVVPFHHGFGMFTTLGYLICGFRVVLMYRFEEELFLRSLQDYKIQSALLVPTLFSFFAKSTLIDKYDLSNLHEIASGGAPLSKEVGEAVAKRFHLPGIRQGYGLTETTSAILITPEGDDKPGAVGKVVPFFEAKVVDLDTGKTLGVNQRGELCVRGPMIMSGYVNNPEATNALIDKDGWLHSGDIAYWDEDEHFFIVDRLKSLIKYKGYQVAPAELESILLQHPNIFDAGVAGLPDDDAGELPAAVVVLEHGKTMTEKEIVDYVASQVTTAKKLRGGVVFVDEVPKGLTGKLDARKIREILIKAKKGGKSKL
T1 sequence (Q9GV45 other isoform, or with tags, fused parts or gaps with the stated changes): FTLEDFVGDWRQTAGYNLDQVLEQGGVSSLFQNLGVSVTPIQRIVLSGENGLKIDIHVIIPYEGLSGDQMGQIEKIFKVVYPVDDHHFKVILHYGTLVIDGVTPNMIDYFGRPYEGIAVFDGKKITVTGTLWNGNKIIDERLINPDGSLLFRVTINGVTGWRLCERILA
Sequence of FLuc-C-HiBiT (firefly luciferase) (P08659 2-550 L550V, form open): as the sequence (P08659 2-550 L550V, form open) above

| Structure (SMILES) | % Activity (max response, + ATP) [1] [%] | % Activity (max response, - ATP) [1] [%] | Efficacy (%) FLuc E ([2]; Clade S follow-up) [%] | Efficacy (%) NLuc (- ATP) [3] [%] | Efficacy (%) FLuc-C-NLuc SDR (-ATP) [4] [%] | pIC50 or pSDR50 FLuc E [2] | IC50 [2] [mM] | pIC50 or pSDR50 FLuc E ([2]; Clade S follow-up) | IC50 ([2]; Clade S follow-up) [mM] |
| --- | --- | --- | --- | --- | --- | --- | --- | --- | --- |
| O=C(NCCc1ccccc1)C1CCN(C(=O)c2ncn3c2COC(c2ccc(F)cc2)C3)CC1 (stereo not drawn) [NCGC00449826-01] | 27.00 | 0.00 | -26.42 | 0.00 | 0.00 | – | – | – | – |
| CCCCNC(=O)C1CCN(C(=O)c2ncn3c2COC(c2ccc(OC)cc2)C3)CC1 (stereo not drawn) [NCGC00449864-01] | 0.00 | 0.00 | -10.96 | 0.00 | 0.00 | – | – | – | – |
| O=C(NC1CCCCCCC1)C1CCN(C(=O)c2ncn3c2COC(c2ccc(F)cc2)C3)CC1 (stereo not drawn) [NCGC00449810-01] | 34.91 | 0.00 | -21.88 | 0.00 | 0.00 | 4.81 | 0.0157 | – | – |
| Cc1ccc(C2Cn3cnc(C(=O)N4CCC(C(=O)NCc5ccc(F)cc5F)CC4)c3CO2)cc1 (stereo not drawn) [NCGC00449890-01] | 88.58 | 0.00 | -41.53 | 0.00 | 0.00 | – | – | 5.01 | 0.00988 |
| O=C(Nc1ccc(F)cc1)C1CCN(C(=O)c2ncn3c2COC(c2ccc(F)cc2)C3)CC1 (stereo not drawn) [NCGC00449939-01] | 72.23 | 0.00 | -56.35 | 0.00 | 0.00 | – | – | 5.01 | 0.00988 |
| CC1CCC(NC(=O)C2CCN(C(=O)c3ncn4c3COC(c3ccc(F)cc3)C4)CC2)CC1 (stereo not drawn) [NCGC00449808-01] | 39.00 | 0.00 | -26.58 | 0.00 | 0.00 | – | – | – | – |
| COc1ccc(C2Cn3cnc(C(=O)N4CCC(C(=O)NCc5ccccc5)CC4)c3CO2)cc1 (stereo not drawn) [NCGC00449865-01] | 0.00 | 0.00 | 0.00 | 0.00 | 0.00 | – | – | – | – |
| Cc1ccc(C2Cn3cnc(C(=O)N4CCC(C(=O)NCc5ccc(F)cc5)CC4)c3CO2)cc1 (stereo not drawn) [NCGC00449889-01] | 136.15 | 0.00 | -57.95 | 0.00 | 0.00 | – | – | 5.01 | 0.00988 |
| COc1ccc(CNC(=O)C2CCN(C(=O)c3ncn4c3COC(c3ccc(C)cc3)C4)CC2)cc1 (stereo not drawn) [NCGC00449887-01] | 80.81 | 0.00 | -38.46 | 0.00 | 0.00 | – | – | 4.96 | 0.0111 |
| O=C(NCC1CCCO1)C1CCN(C(=O)c2ncn3c2COC(c2ccc(F)cc2)C3)CC1 (stereo not drawn) [NCGC00449835-01] | 54.34 | 0.00 | -45.21 | 0.00 | 0.00 | – | – | 5.01 | 0.00988 |
| Cc1ccc(C2Cn3cnc(C(=O)N4CCC(C(=O)NCc5cccc(Cl)c5)CC4)c3CO2)cc1 (stereo not drawn) [NCGC00449892-01] | 61.41 | 14.19 | -30.33 | 0.00 | 0.00 | – | – | 4.91 | 0.0124 |
| COc1ccc(C2Cn3cnc(C(=O)N4CCC(C(=O)NCCc5ccccc5)CC4)c3CO2)cc1 (stereo not drawn) [NCGC00449871-01] | 0.00 | 0.00 | 0.00 | 0.00 | 0.00 | – | – | – | – |
| O=C(NC1CCCCC1)C1CCN(C(=O)c2ncn3c2COC(c2ccc(F)cc2)C3)CC1 (stereo not drawn) [NCGC00449807-01] | 42.77 | 0.00 | -25.30 | 0.00 | 0.00 | 4.96 | 0.0111 | – | – |
| Cc1ccc(CNC(=O)C2CCN(C(=O)c3ncn4c3COC(c3ccc(Cl)cc3)C4)CC2)cc1 (stereo not drawn) [NCGC00449850-01] | 22.50 | 0.00 | -21.67 | 0.00 | 0.00 | – | – | – | – |
| O=C(NCc1ccccc1)C1CCN(C(=O)c2ncn3c2COC(c2ccc(Cl)cc2)C3)CC1 (stereo not drawn) [NCGC00449849-01] | 28.50 | 0.00 | -35.02 | 0.00 | 0.00 | – | – | 4.91 | 0.0124 |
| O=C(NC1CCCCCC1)C1CCN(C(=O)c2ncn3c2COC(c2ccc(F)cc2)C3)CC1 (stereo not drawn) [NCGC00449809-01] | 14.91 | 0.00 | -10.94 | 0.00 | 0.00 | – | – | – | – |
| COc1ccc(C2Cn3cnc(C(=O)N4CCC(C(=O)NCC(C)C)CC4)c3CO2)cc1 (stereo not drawn) [NCGC00449858-01] | 14.32 | 0.00 | -13.26 | 0.00 | 0.00 | – | – | – | – |
| CC(C)c1ccc(NC(=O)C2CCN(C(=O)c3ncn4c3COC(c3ccc(F)cc3)C4)CC2)cc1 (stereo not drawn) [NCGC00449927-01] | 35.93 | 0.00 | -23.88 | 0.00 | 0.00 | – | – | 4.86 | 0.0139 |
| O=C(NCC1CCCCC1)C1CCN(C(=O)c2ncn3c2COC(c2ccc(Cl)cc2)C3)CC1 (stereo not drawn) [NCGC00449855-01] | 16.00 | 0.00 | -13.13 | 0.00 | 0.00 | – | – | – | – |
| CCc1ccc(NC(=O)C2CCN(C(=O)c3ncn4c3COC(c3ccccc3)C4)CC2)cc1 (stereo not drawn) [NCGC00449907-01] | 288.22 | 0.00 | -99.55 | 0.00 | 0.00 | – | – | 5.16 | 0.00699 |
| Cc1ccc(C2Cn3cnc(C(=O)N4CCC(C(=O)NCc5ccccc5C)CC4)c3CO2)cc1 (stereo not drawn) [NCGC00449898-01] | 110.64 | 0.00 | -44.97 | 0.00 | 0.00 | – | – | 4.96 | 0.0111 |
